Assay results published in paper PMC4604048 (The Pediatric infectious disease journal, 2015).

What was measured:
[1] = Intensive steady-state plasma pharmacokinetics of dolutegravir, Stage I; format: in vivo, human (HIV-1 infected treatment-experienced adolescents); conditions: Stage I N=10, ~1 mg/kg once daily; for AUC(0-t) / concentration at 24 h / Cmax / half-life: human, plasma, oral, 1 mg/kg
CD4 cell count = assay: Change from baseline in CD4 cell count and percentage at Week 48; format: in vivo, human (HIV-1 infected treatment-experienced adolescents); conditions: Week 48, dolutegravir plus OBR
HIV-1 = assay: Virologic efficacy: plasma HIV-1 RNA through Week 48; format: in vivo, human (HIV-1 infected treatment-experienced adolescents); conditions: Week 48, N=23, dolutegravir plus OBR
[2] = Safety and adverse events through Week 48
[3] = system: virus with R263K mutation at virologic failure; conditions: adult study where R263K mutation was seen; cited from earlier work
HIV = conditions: week 48; cited from earlier work
[4] = in vivo; cited from earlier work
[5] = Grade 1 or 2 transient clinical events, N=23, not considered related to dolutegravir

C[C@@H]1CCO[C@H]2Cn3cc(C(=O)NCc4ccc(F)cc4F)c(=O)c(O)c3C(=O)N12 [Dolutegravir]
C24, GM (geometric mean) [1]: 0.90 µg/mL
CL/F, GM [1]: 78.03 L/h
CL/F, Mean (SD) [1]: 1.25 (±0.97) L/hr
CL/F, Median (min, max) [1]: 0.87 (0.59, 3.83) L/hr
Tmax, Median (min, max) [1]: 3.00 (1.00, 6.00) hr
AUC(0-t) ([1]; AUC0–24, GM, Table 2): 43100 ng·h/mL
AUC(0-t) ([1]; AUC0–24, Mean (SD)): 51600 ng·h/mL
AUC(0-t) ([1]; AUC0–24, Median (min, max)): 52900 ng·h/mL
concentration at 24 h ([1]; C24, GM (geometric mean)): 900 ng/mL
concentration at 24 h ([1]; C24, Mean (SD)): 1090 ng/mL
concentration at 24 h ([1]; C24, Median (min, max)): 1140 ng/mL
Cmax ([1]; Mean (SD)): 3820 ng/mL
Cmax ([1]; Median (min, max)): 4010 ng/mL
half-life ([1]; T1/2, GM): 11.9 h
half-life ([1]; T1/2, Median (min, max)): 10.4 h
Median (IQR) gain in CD4 cell count (CD4 cell count): 84 cells/µL
Virologic success: proportion with HIV RNA < 400 copies/mL (HIV-1): 74%
proportion with HIV RNA < 50 copies/mL (HIV-1): 61%
abdominal pain, subjects [2, 5]: 21%
arthralgia, subjects [2, 5]: 13%
back pain, subjects [2, 5]: 13%
decrease appetite, subjects [2, 5]: 30%
diarrhea, subjects [2, 5]: 35%
dizziness, subjects [2, 5]: 17%
extremity pain, subjects [2, 5]: 26%
fever, subjects [2, 5]: 30%
headache, subjects [2, 5]: 26%
lymphadenopathy, subjects [2, 5]: 26%
nasal congestion, subjects [2, 5]: 30%
nausea, subjects [2, 5]: 13%
pharyngeal pain, subjects [2, 5]: 35%
sinus congestion, subjects [2, 5]: 17%
Grade 4 AEs, SAEs or discontinuations due to AEs ([2]; through Week 48): no Grade 4 AEs, SAEs or discontinuations due to AEs
tolerability ([2]; through Week 48, dolutegravir plus OBR): well tolerated
dolutegravir FC values at virologic failure [3]: < 2 fold

Cc1nnc(C(=O)NC(C)(C)c2nc(C(=O)NCc3ccc(F)cc3)c(O)c(=O)n2C)o1 [raltegravir]
virologic efficacy of the adolescent cohort (HIV): 57%

CCC[C@@]1(CCc2ccccc2)CC(O)=C([C@H](CC)c2cccc(NS(=O)(=O)c3ccc(C(F)(F)F)cn3)c2)C(=O)O1 [tipranavir]
children reporting serious adverse events [4]: 25%
treatment discontinuation due to serious adverse events [4]: 8%
